{"source": "ChEMBL document CHEMBL4376871", "about": "“Synthesis and anti-cancer activity studies of dammarane-type triterpenoid derivatives” (Eur J Med Chem, 2020)", "key": {"[1]": {"system": "A549", "experiment": "Induction of apoptosis in human A549 cells assessed as upregulation of Bax protein expression at 5 to 20 uM incubated for 12 hrs by Western blot analysis", "assay_type": "functional, cell-based"}, "[2]": {"system": "A549", "experiment": "Induction of apoptosis in human A549 cells at 10 to 15 uM in presence of NAC after 12 hrs by flow cytometric analysis", "assay_type": "functional, cell-based"}, "[3]": {"system": "A549", "experiment": "Induction of apoptosis in human A549 cells assessed as increase in cleaved PARP protein expression level at 5 to 20 uM incubated for 12 hrs by Western blot analysis", "assay_type": "functional, cell-based"}, "[4]": {"system": "SGC-7901", "experiment": "Antiproliferative activity against human SGC7901 cells incubated for 48 hrs and measured after 4 hrs by MTT assay", "assay_type": "functional, cell-based"}, "[5]": {"experiment": "Cytotoxicity against human IOSE-144 cells incubated for 48 hrs and measured after 4 hrs by MTT assay", "assay_type": "cell-based"}, "[6]": {"system": "A549", "experiment": "Induction of apoptosis in human A549 cells at 10 to 15 uM after 12 hrs by flow cytometric analysis", "assay_type": "functional, cell-based"}, "[7]": {"system": "A549", "experiment": "Induction of apoptosis in human A549 cells assessed as early apoptotic cells at 10 uM after 12 hrs by Annexin V-FITC/propidium iodide staining-based flow cytometric analysis (reference value: 0.9%)", "assay_type": "functional"}, "[8]": {"system": "A549", "experiment": "Induction of apoptosis in human A549 cells assessed as upregulation of Cyt c protein expression at 5 to 20 uM incubated for 12 hrs by Western blot analysis", "assay_type": "functional, cell-based"}, "[9]": {"system": "A549", "experiment": "Induction of apoptosis in human A549 cells assessed as appearance of apoptotic bodies at 10 to 20 uM by microscopic analysis", "assay_type": "functional, cell-based"}, "[10]": {"system": "A549", "experiment": "Induction of apoptosis in human A549 cells assessed as decrease in caspase-3 protein expression level at 5 to 20 uM incubated for 12 hrs by Western blot analysis", "assay_type": "functional, cell-based"}, "[11]": {"system": "A549", "experiment": "Induction of apoptosis in human A549 cells assessed as increase in cleaved caspase-9 protein expression level at 5 to 20 uM incubated for 12 hrs by Western blot analysis", "assay_type": "functional, cell-based"}, "[12]": {"system": "MGC-803", "experiment": "Potency index, ratio of IC50 for AD-2 to IC50 for test compound for antiproliferative activity against human MGC803 incubated for 48 hrs and measured after 4 hrs by MTT assay", "assay_type": "functional"}, "[13]": {"system": "MGC-803", "experiment": "Antiproliferative activity against human MGC803 cells incubated for 48 hrs and measured after 4 hrs by MTT assay", "assay_type": "functional, cell-based"}, "[14]": {"system": "A549", "experiment": "Induction of apoptosis in human A549 cells assessed as appearance of fragmented apoptotic bodies at 10 to 20 uM measured after 12 hrs by DAPI staining based fluorescence microscopic analysis", "assay_type": "functional, cell-based"}, "[15]": {"system": "A549", "experiment": "Cell cycle arrest in human A549 cells assessed as decrease in accumulation of cells at G2/M phase at 5 to 10 uM after 24 hrs by propidium iodide staining-based flow cytometric analysis", "assay_type": "functional"}, "[16]": {"system": "A549", "experiment": "Cell cycle arrest in human A549 cells assessed as decrease in accumulation of cells at G0/G1 phase at 5 to 10 uM after 24 hrs by propidium iodide staining-based flow cytometric analysis", "assay_type": "functional"}, "[17]": {"system": "PC-3", "experiment": "Antiproliferative activity against human PC3 cells incubated for 48 hrs and measured after 4 hrs by MTT assay", "assay_type": "functional, cell-based"}, "[18]": {"system": "A549", "experiment": "Suppression of mitochondrial membrane potential in human A549 cells assessed as increase in green fluorescence at 15 uM after 12 hrs by JC-1 staining based flow cytometry (reference value: 0.4%)", "assay_type": "functional"}, "[19]": {"system": "A549", "experiment": "Cell cycle arrest in human A549 cells assessed as increase in expression of p53 at 5 to 20 uM measured after 12 hrs by Western blot analysis", "assay_type": "functional, cell-based"}, "[20]": {"system": "A549", "experiment": "Cell cycle arrest in human A549 cells assessed as increase in accumulation of cells at S phase at 5 to 10 uM after 24 hrs by propidium iodide staining-based flow cytometric analysis", "assay_type": "functional"}, "[21]": {"system": "A549", "experiment": "Suppression of mitochondrial membrane potential in human A549 cells assessed as increase in green fluorescence at 10 uM after 12 hrs by JC-1 staining based flow cytometry (reference value: 0.4%)", "assay_type": "functional"}, "[22]": {"system": "A549", "experiment": "Induction of ROS generation in human A549 cells assessed as intracellular ROS level at 10 to 15 uM after 30 mins by DCFH-DA staining-based flow cytometric analysis", "assay_type": "functional, cell-based"}, "[23]": {"system": "A549", "experiment": "Induction of apoptosis in human A549 cells assessed as decrease in caspase-9 protein expression level at 5 to 20 uM incubated for 12 hrs by Western blot analysis", "assay_type": "functional, cell-based"}, "[24]": {"system": "MCF7", "experiment": "Potency index, ratio of IC50 for AD-2 to IC50 for test compound for antiproliferative activity against human MCF7 incubated for 48 hrs and measured after 4 hrs by MTT assay", "assay_type": "functional"}, "[25]": {"system": "A549", "experiment": "Induction of apoptosis in human A549 cells assessed as decrease in PARP protein expression level at 5 to 20 uM incubated for 12 hrs by Western blot analysis", "assay_type": "functional, cell-based"}, "[26]": {"system": "A549", "experiment": "Induction of apoptosis in human A549 cells assessed as early apoptotic cells at 15 uM after 12 hrs by Annexin V-FITC/propidium iodide staining-based flow cytometric analysis (reference value: 0.9%)", "assay_type": "functional"}, "[27]": {"system": "A549", "experiment": "Potency index, ratio of IC50 for AD-2 to IC50 for test compound for antiproliferative activity against human A549 incubated for 48 hrs and measured after 4 hrs by MTT assay", "assay_type": "functional"}, "[28]": {"system": "A549", "experiment": "Induction of apoptosis in human A549 cells assessed as increase in cleaved caspase-3 protein expression level at 5 to 20 uM incubated for 12 hrs by Western blot analysis", "assay_type": "functional, cell-based"}, "[29]": {"system": "A549", "experiment": "Induction of apoptosis in human A549 cells assessed as nuclear shrinkage at 10 to 20 uM measured after 12 hrs by DAPI staining based fluorescence microscopic analysis", "assay_type": "functional, cell-based"}, "[30]": {"system": "MCF7", "experiment": "Antiproliferative activity against human MCF7 cells incubated for 48 hrs and measured after 4 hrs by MTT assay", "assay_type": "functional, cell-based"}, "[31]": {"system": "A549", "experiment": "Cell cycle arrest in human A549 cells assessed as increase in accumulation of cells at sub G0/G1 phase after 24 hrs by propidium iodide staining-based flow cytometric analysis", "assay_type": "functional"}, "[32]": {"system": "A549", "experiment": "Induction of apoptosis in human A549 cells assessed as nuclear condensation at 10 to 20 uM measured after 12 hrs by DAPI staining based fluorescence microscopic analysis", "assay_type": "functional, cell-based"}, "[33]": {"system": "A549", "experiment": "Antiproliferative activity against human A549 cells incubated for 48 hrs and measured after 4 hrs by MTT assay", "assay_type": "functional, cell-based"}, "[34]": {"system": "SGC-7901", "experiment": "Potency index, ratio of IC50 for AD-2 to IC50 for test compound for antiproliferative activity against human SGC7901 incubated for 48 hrs and measured after 4 hrs by MTT assay", "assay_type": "functional"}, "[35]": {"system": "A549", "experiment": "Induction of apoptosis in human A549 cells assessed as cell shrinkage at 10 to 20 uM by microscopic analysis", "assay_type": "functional, cell-based"}, "[36]": {"system": "A549", "experiment": "Induction of ROS generation in human A549 cells assessed as intracellular ROS level at 10 to 15 uM after 30 mins in presence of NAC by DCFH-DA staining-based flow cytometric analysis", "assay_type": "functional, cell-based"}, "[37]": {"system": "A549", "experiment": "Induction of apoptosis in human A549 cells assessed as decrease in Bcl2 protein expression level at 5 to 20 uM incubated for 12 hrs by Western blot analysis", "assay_type": "functional, cell-based"}, "[38]": {"system": "PC-3", "experiment": "Potency index, ratio of IC50 for AD-2 to IC50 for test compound for antiproliferative activity against human PC3 incubated for 48 hrs and measured after 4 hrs by MTT assay", "assay_type": "functional"}, "[39]": {"system": "A549", "experiment": "Induction of apoptosis in human A549 cells measured after 12 hrs by Annexin V-FITC/propidium iodide staining-based flow cytometric analysis", "assay_type": "functional, cell-based"}, "[40]": {"system": "A549", "experiment": "Cell cycle arrest in human A549 cells assessed as increase in expression of p21 at 5 to 20 uM measured after 12 hrs by Western blot analysis", "assay_type": "functional, cell-based"}}, "note": "Activity calls are given as the source filed them. No cut-off for these calls is given here."}
{"molecule": "CC(C)(O)CCC[C@@](C)(O)[C@H]1CC[C@]2(C)[C@@H]1[C@H](O)C[C@@H]1[C@@]3(C)CC[C@H](OC(=O)C4CCNCC4)C(C)(C)[C@@H]3CC[C@]12C", "values": [{"measurement": "Activity", "setting": "[1]", "result": "Active"}, {"measurement": "Activity", "setting": "[2]", "result": "inactive"}, {"measurement": "Activity", "setting": "[3]", "result": "Active"}, {"measurement": "IC50", "setting": "[4]", "result": 7.11, "unit": "µM"}, {"measurement": "IC50", "setting": "[5]", "result": "> 100", "unit": "µM"}, {"measurement": "Activity", "setting": "[6]", "result": "Active"}, {"measurement": "Activity", "setting": "[7]", "result": 27, "unit": "%"}, {"measurement": "Activity", "setting": "[8]", "result": "Active"}, {"measurement": "Activity", "setting": "[9]", "result": "Active"}, {"measurement": "Activity", "setting": "[10]", "result": "Active"}, {"measurement": "Activity", "setting": "[11]", "result": "Active"}, {"measurement": "Ratio IC50", "setting": "[12]", "result": "5 - 28"}, {"measurement": "IC50", "setting": "[13]", "result": 6.51, "unit": "µM"}, {"measurement": "Activity", "setting": "[14]", "result": "Active"}, {"measurement": "Activity", "setting": "[15]", "result": "Active"}, {"measurement": "Activity", "setting": "[16]", "result": "Active"}, {"measurement": "IC50", "setting": "[17]", "result": 5.44, "unit": "µM"}, {"measurement": "Activity", "setting": "[18]", "result": 27.6, "unit": "%"}, {"measurement": "Activity", "setting": "[19]", "result": "Active"}, {"measurement": "Activity", "setting": "[20]", "result": "Active"}, {"measurement": "Activity", "setting": "[21]", "result": 7.5, "unit": "%"}, {"measurement": "Activity", "setting": "[22]", "result": "Active"}, {"measurement": "Activity", "setting": "[23]", "result": "Active"}, {"measurement": "Ratio IC50", "setting": "[24]", "result": "5 - 28"}, {"measurement": "Activity", "setting": "[25]", "result": "Active"}, {"measurement": "Activity", "setting": "[26]", "result": 50, "unit": "%"}, {"measurement": "Ratio IC50", "setting": "[27]", "result": "5 - 28"}, {"measurement": "Activity", "setting": "[28]", "result": "Active"}, {"measurement": "Activity", "setting": "[29]", "result": "Active"}, {"measurement": "IC50", "setting": "[30]", "result": 1.27, "unit": "µM"}, {"measurement": "Activity", "setting": "[31]", "result": "Active"}, {"measurement": "Activity", "setting": "[32]", "result": "Active"}, {"measurement": "IC50", "setting": "[33]", "result": 1.07, "unit": "µM"}, {"measurement": "Ratio IC50", "setting": "[34]", "result": "5 - 28"}, {"measurement": "Activity", "setting": "[35]", "result": "Active"}, {"measurement": "Activity", "setting": "[36]", "result": "inactive"}, {"measurement": "Activity", "setting": "[37]", "result": "Active"}, {"measurement": "Ratio IC50", "setting": "[38]", "result": "5 - 28"}, {"measurement": "Activity", "setting": "[39]", "result": "Dose-dependent effect"}, {"measurement": "Activity", "setting": "[40]", "result": "Active"}]}
